Results on nine compounds are retold here after US20050143406A1, “Amino-substituted hypocrellins for use as sonosensitizers” (priority 2002, published 2005).

“And” between values parts separate entries of the source, which are not always exact repeats. Identical values can stand only once.

Assay [1] relates to EMT6 murine mastocytoma in vitro. The experiment in a line: Sonosensitizing potential: LD50 for a fixed dose of ultrasound. The class given is cell-based.
Assay [2] shares this test system. Put plainly: Photosensitizing potential: LD50 for a fixed dose of light. The class given is cell-based.
In assay [3] the test system is Human acute promyelocytic leukemia HL-60 cells. Put plainly: Sonodynamic therapy survival assay, screening of sonosensitizers in vitro. In kind it is cell-based. The conditions noted are these: for Mean - DMSO Bg: mean survival relative to DMSO only (100.0); for Survival, % Mean / Survival, %: insonated HL-60 cells; for Survival, %: single determinations. The source says: This screening assay makes use of human promyelocytic leukemia cells growing in suspension culture. The transducer of an UltraMax ultrasound generator for physiotherapy was adapted for in vitro studies by fitting a tissue culture-compatible Teflon cuff such that cell suspensions could be conveniently insonated. The following diagrams represent the equipment employed.
Human acute promyelocytic leukemia HL-60 cells (ATCC No CCL-240) were maintained in RPMI 1640 cell culture medium supplemented with 7 g/L of L-glutamine (Gibco, Grand Island N.Y.), 10% fetal bovine serum (Cansera), and 1% penicillin-streptomycin-neomycin (Gibco), buffered with NaHCO3 to pH 7.4. They were incubated at 37° C. in a humidified atmosphere of 95% air, 5% CO2, and maintained at cell densities between 2.0×10^5 to 1.0×10^6 cells/mL. For insonations in the presence of Hp (a porphyrin positive control) or hypocrellin test compounds, cells were brought to approximately 1.0×10^6 cells/mL, incubated with the putative sensitizer at 37° C. for 2 hours in T-flasks, equilibrated for 30 minutes at room temperature, resuspended and insonated. All procedures took place in low-light conditions to avoid spurious photosensitization. Cells were gently resuspended for 10 seconds before insonation. […] Stock sensitizer was prepared by slowly adding RPMI-1640 medium to the appropriate volume at final sensitizer concentrations between 0.3 mM and 1 mM.
Aliquots of cells were withdrawn prior to insonation to serve as the original value for cell survival. Cells were suspended in Isoton diluent and counted in a Coulter electronic particle counter. Insonation proceeded at a power density of 2 W, at times varying between 3- and 10 seconds to effect cytotoxicity by sonosensitization. Control cultures were subjected to the appropriate dose of ultrasound, in the presence of DMSO, and the absence of the test sonosensitizer. Following ultrasound treatment, aliquots of the cell suspension were withdrawn for counting as above, and the survival fraction, S, was calculated as the fraction: S=(Cell number following insonation/cell number prior to insonation)×100. Results:
HL-60 cells were treated with perylenequinone sensitizers and insonated as described above. The surviving fractions were plotted against sensitizer concentration. […] Cell survival decreased steeply over the next two decades of sensitizer concentration.

For assay [4], the system named is syngeneic murine mastocytoma, EMT6. The experiment in a line: Efficiency of DMHB in vivo: SDT of EMT6 tumors in Balb/c mice. The conditions noted are these: Balb/c mice with EMT6 flank tumors, DMHB i.p. 50 μM total body concentration, ultrasound 1 MHz 0.2 W/cm^2 10 min after 48 h; FIG. 2. How it is done:
We explored the use of DMHB in Balb/c mice engrafted in the flank with the syngeneic murine mastocytoma, EMT6. The mice were inoculated subcutaneously with 1.0×10^5 EMT6 tumor cells in sterile injectable saline. Within 7 days, detectable tumors are evident. Mice were randomized into a control group and a SDT treatment group, which differed only in that the sonosensitizer was not present in the drug solvent (see below). Fresh DMHB was dissolved in mineral oil, and injected intraperitoneally into each mouse to achieve a total body concentration of 50 μM. Following a an interval of 48 h for biodistribution of the sensitizer, the mice were lightly anesthetized with Metafane, and placed on a 2% agarose gel, with the tumor lying in a depression of the gel which was juxtaposed to the transducer of an UltraMax physiotherapy ultrasound generator. Ultrasound was applied at a frequency of 1 MHz, at a power density of 0.2 W/cm^2, for a 10-minute period. The maximum energy applied to the tumor volume was approximately 500 J. Tumor growth was monitored daily by caliper measurements in three mutually orthogonal planes. Tumor volume was calculated from the expression, V=π/6×d1×d2×d3 where V=volume (mm^3), and d1,2, and 3 are the three mutually orthogonal diameters. The endpoint for the assay was the proportion of tumors reaching 4 times treatment volume, which was plotted as a function of time. […]

Where [5] appears, read: HL-60 cells, fixed dose and energy of ultrasound.

In the case of “2-(N,N-dimethyl-amino) propylamine-Hypocrellin B [HBDD-R1]”, the “Sonosensitizing Potential (Molar Concentration which exerts LD50)” value (“Sonosensitizing Potential” for short) in assay [1] worked out at 1.0 mM.

2-morpholino-ethylaminated HB [HBAM-R1]: the “Photosensitizing Potential (Molar Concentration which exerts LD50)” value (from here on “Photosensitizing Potential”) in assay [2] amounted to 4.0 µM. Also, the “Sonosensitizing Potential” value in assay [1] is recorded as “None”.

Turning to `CCCCNc1c2c3c4c(c(OC)c(=O)c5c(O)cc(OC)c(c6c(OC)cc(O)c(c1=O)c63)c54)CC(C)=C2C(C)=O` [DMHBb, 2-butylamino-2-demethoxy-Hypocrellin B], in assay [2], the “Photosensitizing Potential” value is 0.1 µM. Besides, the “Sonosensitizing Potential” value in assay [1] is given as 0.1 mM.

With `COc1c2c3c4c(c(OC)c(=O)c5c(O)cc(OC)c(c6c(OC)cc(O)c(c1=O)c63)c54)[C@@H](C(C)=O)[C@@](C)(O)C2` [HA, Hypocrellin A, reference compound], the “Photosensitizing Potential” value in assay [2] was 4.0 µM. Also, the “Sonosensitizing Potential” value in assay [1] is listed as “None”.

Consider `CC1=C(CCC(=O)O)c2cc3[nH]c(cc4nc(cc5[nH]c(cc1n2)c(C)c5C(C)O)C(C)=C4C(C)O)c(C)c3CCC(=O)O` (stereo not shown) [Hp, hematoporphyrin, reference compound], for which the LD50 in assay [3] (setting [5]) is recorded as 1.0 mM.

With Demethylated-HB [DMHBa], in assay [2], the “Photosensitizing Potential” value was found to be 3.0 µM. Besides, in assay [1], the “Sonosensitizing Potential” value was determined as 1.0 mM.

On to Ethylenediamne-Hypocrellin B [HBED-R2], for which, in assay [2], the “Photosensitizing Potential” value is 4.0 µM. Also, in assay [1], the “Sonosensitizing Potential” value is “None”.

As for Methylamine-Hypocrellin B [HBMA-IV], in assay [2], the “Photosensitizing Potential” value turned out to be 1.0 µM. In assay [1], the “Sonosensitizing Potential” value is given as “None”.

In the case of demethoxy hypocrellin B [DMHB], the “maximum sonotoxic effect compared with Hp control” value in assay [3] (HL-60 cells) is on record as “comparable to that of the Hp control”. Moreover, the LD50 result in assay [3] (setting [5]) is given as “approximately 100 μM”. The “difference of LD50 versus hematoporphyrin (Hp) control” value in assay [3] (setting [5]) was found to be 10 fold. Besides, in assay [3] (HL-60 cells, up to 100 μM), the sonotoxicity result is recorded as “negligible sonotoxicity”. The figures for the “Mean - DMSO Bg” value in assay [3] (1 μM DMHB), in assay [3] (10 μM DMHB) and in assay [3] (100 μM DMHB) were 83.0%, 71.1% and 63.2%, respectively. Besides, the “Survival, % Mean” value in assay [3] (DMSO + 1 μM DMHB) is 41.1%; in assay [3] (DMSO + 10 μM DMHB), 35.2%; in assay [3] (DMSO + 100 μM DMHB), 31.3%. The “Survival, %” value in assay [3] (DMSO + 1 μM DMHB) is 41.8% and 48.2% and 33.5%; in assay [3] (DMSO + 10 μM DMHB), 37.3% and 43.3% and 24.9%; in assay [3] (DMSO + 100 μM DMHB), 30.7% and 39.4% and 23.7%. In assay [4], the tumor growth result is “tumor growth is inhibited”.
